Reference: BindingDB's records for doi:10.1016/j.bmcl.2011.10.035 (Sepuluh Nopember Institute of Technology, 2011)

The molecules below were run against Aldo-keto reductase family 1 member B1 (Homo sapiens, UniProt P15121) (assay: Inhibition of recombinant human aldose reductase using dl-glyceraldehyde as substrate after 10 mins by spectrophotometry).

IC50 [µM] | Compound
> 193 | CC(CC(=O)C[C@@H](C)[C@H]1CC(=O)[C@@]2(C)C3C(=O)C[C@H]4C(C)(C)[C@@H](O)CC[C@]4(C)C3C(=O)C(=O)[C@]12C)C(=O)O (stereo partly drawn)
> 188 | CC(CC(=O)C[C@@H](C)[C@H]1CC(=O)[C@@]2(C)C3C(C(=O)C(=O)[C@]12C)[C@@]1(C)CC[C@H](O)C(C)(C)[C@@H]1C[C@@H]3O)C(=O)O (stereo partly drawn)

Compound | IC50 [µM]
CC(=CC(=O)CC(C)C(=O)O)[C@H]1CC(=O)[C@@]2(C)C3=C(C(=O)C[C@]12C)[C@@]1(C)CCC(=O)C(C)(C)[C@@H]1C[C@@H]3O (stereo partly drawn) | > 195
